Assay results as given in paper PMC2886105, “Assay Strategies for the Discovery and Validation of Therapeutics Targeting Brugia pahangi Hsp90” (PLoS Neglected Tropical Diseases, 2010).
Read-outs that look alike come from different tables or passages of the source.

Experiments:
adult female B. pahangi [1] = experiment: Mf output by adult female B. pahangi cultured in vitro with drug; design: species or system Brugia pahangi; conditions: GA at 1 µM; PU-H71 and PU-DZ8 at 5 and 10 µM; three-day period
Description: (§1) Mf output by individual female worms was assessed at two time points and adult worms were examined microscopically and their condition noted. Results are expressed as mean Mf output over a three-day period ± SD. Statistical significance between groups was calculated using the Mann Whitney test with P values <0.05 being considered significant.
(§2) Figure 3 Brugia assay validation. […] Ligand binding was plotted against the log10 inhibitor concentration, and EC50 values were calculated using a nonlinear least-square curve-fitting program in Prism 4.0. Points, mean; bars, s.d. […] Graphs show mean and SD of Mf output over a three-day period from six female worms per group.

B. pahangi Mf = experiment: Mortality of purified B. pahangi Mf incubated in drug; design: species or system Brugia pahangi; conditions: day 7
Description: as §1
In separate experiments, Mf were purified from the peritoneal cavity of infected animals and incubated alone in each of the drugs.

adult female B. pahangi [2] = system: adult female B. pahangi; design: method as in PMID 15862576; conditions: adult worms ref 14; cited from earlier work
Brugia Hsp90 = biological target: T1, Brugia Hsp90 (Brugia pahangi, UniProt O61998); experiment: biochemical; assay type: binding; conditions: for dose-dependent reduction of the FP signal: Figure 3B, Brugia extract; for IC50: 6 nM cy3B-GA, 2 µg/well Brugia extract, 4°C, 24 h
T1 construct: from tissue; host or cells: whole adult B. pahangi worms from infected gerbils, ground and re-suspended in HFB assay buffer
Description: FP measurements were performed using black 96-well microtiter plates (Corning #3650), where both the excitation and the emission occurred from the top of the well, on an Analyst GT plate reader (Molecular Devices, Sunnyvale, CA). An integration time of 100 ms was used, and Z height was set at 3 mm (middle). The excitation polarization was set at static, and the emission polarization was set at dynamic. […] All FP values were expressed in millipolarization (mP) units. The mP values were calculated using the equation mP = 1000× [(IS – ISB) – (IP – IPB)]/[(IS – ISB) + (IP – IPB)], where IS is the parallel emission intensity measurement, IP is the perpendicular emission intensity sample measurement, and ISB and […] are the corresponding measurements for background (buffer). Total fluorescence was determined as 2×IP+IS.
For the competition studies, FP assays were performed as previously reported. […] Drugs were added to triplicate wells. […] Plates were incubated on a shaker at 4°C, and polarization values measured at 8 to 24 h.
as §2

adult B. pahangi = experiment: Condition and activity of adult B. pahangi worms in vitro; design: species or system Brugia pahangi
Description: Mf output by individual female worms was assessed at two time points and adult worms were examined microscopically and their condition noted. Results are expressed as mean Mf output over a three-day period ± SD.

## COC1=C2C[C@@H](C)C[C@H](OC)[C@H](O)[C@@H](C)/C=C(\C)[C@H](OC(N)=O)[C@@H](OC)/C=C\C=C(/C)C(=O)NC(=CC1=O)C2=O [GA, geldanamycin]
Adult female B. pahangi [1]
  effect on Mf release: profound effect
B. pahangi Mf; 1.0 µM
  Mf dead: all dead
Adult female B. pahangi [2]
  onset of effect on Mf output: ≤ 24 h

## Nc1ncnc2c1ncn2[C@@H]1O[C@H](COP(=O)(O)OP(=O)(O)O)[C@@H](O)[C@H]1O [ADP]
Brugia Hsp90
  dose-dependent reduction of the FP signal: dose-dependent reduction of the FP signal

## CC(C)NCCCn1c(Sc2cc3c(cc2I)OCO3)nc2c(N)ncnc21 [PU-H71]
Brugia Hsp90; Brugia IC50, Figure 4C
  IC50: 80.8 ± 0.5 nM
Brugia Hsp90; IC50, inhibition of the binding of cy3B-GA to Brugia Hsp90, values in text for Figure 3C
  IC50: 80 nM
Adult female B. pahangi [1]
  effect on Mf release: profound effect
Adult B. pahangi; 5.0 µM
  activity of adult worms: markedly less active
Adult B. pahangi; 10 µM
  activity of adult worms: markedly less active
Adult B. pahangi; in vitro
  concentration of drug required to kill adult Brugia: 2.5 µM
B. pahangi Mf; 5.0 µM
  Mf dead: approximately 80%
B. pahangi Mf; 10 µM
  Mf dead: 100%

## CO[C@@H]1[C@@H](OC(N)=O)[C@@H](O)[C@H](Oc2ccc3c(O)c(NC(=O)c4ccc(O)c(CC=C(C)C)c4)c(=O)oc3c2C)OC1(C)C [novobiocin]
Brugia Hsp90
  EC50: > 10000 nM

## C[C@@H]1C[C@H]2O[C@@H]2/C=C\C=C\C(=O)Cc2c(Cl)c(O)cc(O)c2C(=O)O1 [radicicol]
Brugia Hsp90
  EC50: 75.4 nM

## ivermectin
Brugia Hsp90
  dose-dependent reduction of the FP signal: no such effect

## CC(C)NCCCn1c(Sc2cc3c(cc2I)OCC3)nc2c(N)ncnc21 [PU-WS10]
Brugia Hsp90; Brugia vs human SKBr3 Hsp90 species
  Selectivity ratio (Brugia IC50 / SKBr3 IC50): 9

## C#CCCCn1c(Cc2cc(OC)c(OC)c(OC)c2Cl)nc2c(N)nc(F)nc21 [PU-24FCl]
Brugia Hsp90
  Selectivity ratio (Brugia IC50 / SKBr3 IC50): 2
Brugia Hsp90; Brugia IC50, Figure 4C
  IC50: 1410 ± 10 nM
